Source: patent US10765669B2, “Pharmaceutical composition for preventing or treating DYRK-related diseases, containing pyridine-based compound as active ingredient” (KOREA RESEARCH INSTITUTE OF BIOSCIENCE AND BIOTECHNOLOGY, priority 2016, dated 2020)

How the values were obtained:
[1] = biological target: C-met kinase (Homo sapiens, UniProt P08581); conditions: existing studies; ATP competitive manner; cited from earlier work
[2] = biological target: T1, DYRK1A (Homo sapiens, UniProt Q13627); assay: NFAT signaling reporter (NFAT-RE-luciferase), cell-based DYRK1A efficacy evaluation in 293T cells; conditions: for luciferase increase effect / activity level compared with harmine and CX-4945: 10 μM; for luciferase increase effect: 293T cells, NFAT-RE-luciferase reporter, IM + PMA, DYRK1A overexpressed, among 570 candidates; for activity level compared with harmine and CX-4945: same reporter conditions; for EC50 of luciferase increase effect, fold lower than harmine and CX-4945: NFAT reporter, concentration gradient (FIG. 4); for luciferase activity compared with condition without DYRK1A overexpression: treated with 3 μM, concentration gradient, same conditions
T1 construct: expressed in transfected cells; host or cells: 293T
Description: With respect to the 570 compounds identified as candidate DYRK1A inhibitors through the virtual screening, a secondary effect evaluation was carried out using NFAT signaling reporter which is the already well-established cell-based DYRK1A effect evaluation system (FIG. 3). NFAT signaling reporter has a very high level of dependence on DYRK1A, and thus is effective in the identifying experiment of the proper candidate DYRK1A inhibitors. DYRK1A is known to regulate calcineurin/Nuclear Factor of Activated T cells (NFAT) signals and play an important role in the stage of human development process. NFATc1 transcription factor is usually present as a protein that is phosphorylated in the cytoplasm when the Ca^2+ concentration of the cells is increased, NFATc1 is dephosphorylated by calcineurin phosphatase which is a Ca^2+-dependent protein, and NFATc1 is moved into the nucleus. NFATc1 which has entered into the nucleus and protein partner NFATn form a transcription complex, and the complex binds to the promoter of the target gene to induce the target gene expression. In contrast, DYRK1A phosphorylates NFATc1 to inhibit the movement of NFATc1 into the nucleus, and results in the inhibition of the expression of the target gene. The DYRK1A-inhibitory effect of the 570 candidates was confirmed through the transcription activity of NFATc1, and for this, a luciferase reporter containing NFAT response element (NFAT-RE) useful to measure the transcription activity of NFATc1 was used. A NFAT-RE-luciferase reporter was over-expressed in 293T cells, and was then treated with Ionomycin (IM) and phorbol 12-myristate 13-acetate (PMA) to increase the intracellular concentration of Ca^2+. As a result, the expression of luciferase was increased sharply. […] If the candidate drug treatment in this condition inhibits DYRK1A, the luciferase will be increased.

[3] = biological target: GSK3β (Homo sapiens, UniProt P49841); assay: In vitro CMGC kinase assay, GSK3β; format: biochemical; conditions: in vitro kinase panel; next to DYRK1A
[4] = biological target: T1, DYRK1A; assay: Inhibition of Tau protein (Thr212) phosphorylation in 293T cells overexpressing Tau and DYRK1A; format: cell-based; conditions: for IC50: 293T cells overexpressing Tau and DYRK1A
[5] = biological target: T1, DYRK1A; assay: In vitro kinase assay with separated and purified DYRK1A protein; format: biochemical

Chain of C-met kinase (P08581 25-1390): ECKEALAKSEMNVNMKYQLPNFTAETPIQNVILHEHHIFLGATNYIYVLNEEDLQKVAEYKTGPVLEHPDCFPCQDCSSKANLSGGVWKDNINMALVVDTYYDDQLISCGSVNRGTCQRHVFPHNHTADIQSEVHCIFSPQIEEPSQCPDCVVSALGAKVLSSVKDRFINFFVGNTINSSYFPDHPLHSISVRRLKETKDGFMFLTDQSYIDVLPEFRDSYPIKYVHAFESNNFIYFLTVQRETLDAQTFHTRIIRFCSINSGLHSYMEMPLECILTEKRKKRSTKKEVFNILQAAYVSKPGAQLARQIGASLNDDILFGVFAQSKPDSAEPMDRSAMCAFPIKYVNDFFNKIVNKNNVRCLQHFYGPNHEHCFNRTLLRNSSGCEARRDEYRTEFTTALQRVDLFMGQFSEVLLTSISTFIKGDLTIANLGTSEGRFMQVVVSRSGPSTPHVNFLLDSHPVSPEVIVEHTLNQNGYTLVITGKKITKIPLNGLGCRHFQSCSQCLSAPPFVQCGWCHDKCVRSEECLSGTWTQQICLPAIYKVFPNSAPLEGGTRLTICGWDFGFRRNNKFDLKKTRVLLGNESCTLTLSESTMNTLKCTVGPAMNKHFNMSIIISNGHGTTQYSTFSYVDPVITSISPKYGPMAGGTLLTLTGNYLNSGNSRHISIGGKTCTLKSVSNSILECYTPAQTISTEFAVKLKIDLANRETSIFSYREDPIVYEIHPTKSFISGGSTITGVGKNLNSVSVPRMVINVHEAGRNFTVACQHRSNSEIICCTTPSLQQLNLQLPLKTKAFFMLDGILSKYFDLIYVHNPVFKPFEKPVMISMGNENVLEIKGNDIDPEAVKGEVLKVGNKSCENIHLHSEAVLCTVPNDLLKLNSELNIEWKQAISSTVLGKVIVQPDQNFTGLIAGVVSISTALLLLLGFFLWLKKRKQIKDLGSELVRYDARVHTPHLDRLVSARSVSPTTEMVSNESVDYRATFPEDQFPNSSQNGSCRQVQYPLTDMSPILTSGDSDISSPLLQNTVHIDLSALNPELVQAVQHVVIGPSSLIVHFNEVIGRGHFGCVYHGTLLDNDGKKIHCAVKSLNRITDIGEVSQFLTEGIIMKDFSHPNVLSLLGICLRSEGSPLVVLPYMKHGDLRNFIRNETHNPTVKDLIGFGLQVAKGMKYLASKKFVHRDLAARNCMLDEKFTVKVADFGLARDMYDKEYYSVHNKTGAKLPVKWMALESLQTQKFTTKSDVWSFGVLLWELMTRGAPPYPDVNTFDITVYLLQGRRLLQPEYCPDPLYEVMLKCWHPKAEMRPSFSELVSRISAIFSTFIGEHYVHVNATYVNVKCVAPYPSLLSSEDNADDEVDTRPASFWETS
Chain of GSK3β (P49841 whole entry, species assumed): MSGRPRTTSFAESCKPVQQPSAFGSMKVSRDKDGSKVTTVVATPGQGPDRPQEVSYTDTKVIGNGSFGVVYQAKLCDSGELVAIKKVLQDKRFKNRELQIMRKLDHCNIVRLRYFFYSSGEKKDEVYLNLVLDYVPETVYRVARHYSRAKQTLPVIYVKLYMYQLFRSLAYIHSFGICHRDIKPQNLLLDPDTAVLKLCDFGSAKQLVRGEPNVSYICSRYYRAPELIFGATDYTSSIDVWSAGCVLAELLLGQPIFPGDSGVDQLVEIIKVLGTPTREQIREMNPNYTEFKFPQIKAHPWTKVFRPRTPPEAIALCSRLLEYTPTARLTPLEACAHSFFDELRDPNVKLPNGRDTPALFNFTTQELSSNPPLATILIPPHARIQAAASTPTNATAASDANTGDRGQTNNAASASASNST

Structure (SMILES) | C-met kinase inhibition [1] | luciferase increase effect [2] | activity level compared with harmine and CX-4945 [2] | EC50 of luciferase increase effect, fold lower than harmine and CX-4945 [2] | luciferase activity compared with condition without DYRK1A overexpression [2] | inhibitory effect on GSK3β [3] | IC50 [4] | inhibitory effect on Tau phosphorylation, times stronger than harmine, INDY and proINDY ([4]; same experimental conditions) | inhibition at 0.1 µM ([5]; 100 nM concentration, read-out: inhibitory effect on DYRK1A) | rank of inhibitory effect among DYRK family and CMGC kinases ([5]; in vitro kinase panel (FIG. 6)) | IC50 ([5]; predicted from inhibition at 100 nM)
Nc1ncc(-c2cnn(C3CCNCC3)c2)cc1-c1nc2cnccc2o1 [formula 3] | inhibitors of the C-met kinase | highest luciferase increase effect | clearly higher | 10 times | higher than the luciferase activity of the condition that DYRK1A was not overexpressed | – | – | – | – | – | –
CC(=O)N1CCC(n2cc(-c3cnc(N)c(-c4nc5cnccc5o4)c3)cn2)CC1 [formula 2] | inhibitors of the C-met kinase | highest luciferase increase effect | clearly higher | 10 times | higher than the luciferase activity of the condition that DYRK1A was not overexpressed | high inhibitory effect | ~50 nM | 10-60 times | ~95% | strongest inhibitory effect on DYRK1A | ~10 nM
Cn1cc(-c2cnc(N)c(-c3nc4cnccc4o3)c2)cn1 [formula 4] | – | highest luciferase increase effect | clearly higher | – | – | – | – | – | – | – | –
CCN1/C(=C/C(C)=O)Sc2ccc(OC(C)=O)cc21 [proINDY, reference compound] | – | – | – | – | – | – | ~3000 nM | – | – | – | –
